Literature values, collected in patent US7119205B2, “Thienopyridones as AMPK activators for the treatment of diabetes and obesity” (Abbott Laboratories, priority 2003, dated 2006).

Test system: ob/ob and db/db mice
Settings: 8 day administration

Question: With NC(=O)c1ncn([C@@H]2O[C@H](CO)[C@@H](O)[C@H]2O)c1N [AICAR] as the compound, how does the “reduction of blood glucose” value read?
Answer: 35%
